From PMC8125885, “6,6′-Dihydroxythiobinupharidine (DTBN) Purified from Nuphar lutea Leaves Is an Inhibitor of Protein Kinase C Catalytic Activity” (Molecules, 2021)
Like-named read-outs stand apart in the source and are kept apart here.

Experiments:
PKCη [1] = target: T1, PKCη (Homo sapiens, UniProt P24723); set-up: method as in PMID 22078216; settings: co-crystallized inhibitor at PKCη; cited from earlier work
PKCα = target: T2, PKCα (Homo sapiens, UniProt P17252); assay: In vitro kinase assay (32P-MBP phosphorylation by immunoprecipitated HA-tagged PKC); assay type: biochemical; settings: MBP substrate, 100 μM cold ATP, 30 min at 32 °C
T2 construct: made in house; host or cells: HEK-293T
Protocol: (§1) To test the effect of DTBN on the activity of PKC isoforms, in vitro kinase assays were performed in a dose–response experiment, and results are presented in Figure 1. At these concentrations, the kinase activities of PKCs were inhibited by DTBN in a dose-dependent manner, having the most profound effect on conventional PKCα and PKCγ as compared to other PKCs tested (Figure 1 and Table 1). […] Immunoblotting was performed with antibodies against HA-tagged different PKCs and against Myelin Basic Protein (MBP) as a loading control.
(§2) Figure 1 DTBN downregulates PKC catalytic activity in a concentration-dependent manner. In vitro kinase assays of indicated PKC isoforms were performed, as described in Materials and Methods, utilizing MBP as a substrate. Before the initiation of the assay, DTBN was added to the samples at several concentrations. Following the termination of the assay, sample proteins were then resolved by SDS-PAGE and developed by autoradiography (a). p^32-MBP and MBP protein band signals were quantified using Image Lab software, and the relative amounts of p^32-MBP/MBP were presented in a line graph (b). Immunoblotting against HA and MBP to detect overexpressed PKC expression, and MBP, respectively, monitor equal loading of samples. Data are representative of two independent experiments. Molecular weight markers (in kDa) are indicated on the left, and arrows mark the positions of the indicated protein bands. IgH, Ig heavy chain.
(§3) PKC kinase assays were performed, as described, using myelin-basic protein (5 μg/100 μL) (MBP, #M1891, Sigma-Aldrich, St. Louis, MO, USA) as a substrate. Whole-cell lysates (75 μg per sample) of HEK-293T cells, each overexpressing different HA-tagged PKCs, were subjected to immunoprecipitation using protein A/G-agarose bead-immobilized anti-HA mAbs (#MMS-101R, BioLegend, San Diego, CA, USA). The immunoprecipitates were washed four times with Triton X-100-containing lysis buffer, and lastly with PKC kinase assay buffer (20 mM HEPES, pH 7.5, 10 mM MgCl2, and 0.1 mM EGTA). The immunoprecipitates were then equally divided to Eppendorf safe-lock tubes, followed by the addition of indicated concentrations of DTBN (μg/mL) and subsequent incubation in a kinase reaction mixture (10 mM ΜgCl2, 20 mM HEPES, 0.1 mM EGTA, 50 μg/mL phosphatidylserine, and 5μCi γ-32P-ATP (PerkinElmer, Waltham, MA, USA), also including 100 μM cold ATP and 1.5 mM CaCl2 (for conventional PKCs), and incubated for 30 min at 32 °C with gentle shaking. Reactions were terminated by the addition of 5× sample buffer and boiling for 5 min, followed by SDS-PAGE (10% acrylamide gels) under reducing conditions. Samples were then transferred to nitrocellulose membranes (Sigma-Aldrich) that were developed by immunoblotting and autoradiography. After the detection of the phosphorylated substrate (^32P-MBP) by autoradiography, the membranes were probed with anti-HA and anti-MBP mAbs (#SMI-99P, BioLegend, San Diego, CA, USA), (loading controls). ^32P-MBP and MBP protein bands were quantified using Image Lab software (5.2.1).

PKCγ = target: T3, PKCγ (Homo sapiens, UniProt P05129); assay: as above; assay type: biochemical; settings: MBP substrate, 100 μM cold ATP, 30 min at 32 °C
T3 construct: made in house; host or cells: HEK-293T
Protocol: as §1, §2, §3

PKCδ = target: T4, PKCδ (Homo sapiens, UniProt Q05655); assay: as above; assay type: biochemical; settings: MBP substrate, 100 μM cold ATP, 30 min at 32 °C
T4 construct: made in house; host or cells: HEK-293T
T4 sequence (Q05655 whole entry): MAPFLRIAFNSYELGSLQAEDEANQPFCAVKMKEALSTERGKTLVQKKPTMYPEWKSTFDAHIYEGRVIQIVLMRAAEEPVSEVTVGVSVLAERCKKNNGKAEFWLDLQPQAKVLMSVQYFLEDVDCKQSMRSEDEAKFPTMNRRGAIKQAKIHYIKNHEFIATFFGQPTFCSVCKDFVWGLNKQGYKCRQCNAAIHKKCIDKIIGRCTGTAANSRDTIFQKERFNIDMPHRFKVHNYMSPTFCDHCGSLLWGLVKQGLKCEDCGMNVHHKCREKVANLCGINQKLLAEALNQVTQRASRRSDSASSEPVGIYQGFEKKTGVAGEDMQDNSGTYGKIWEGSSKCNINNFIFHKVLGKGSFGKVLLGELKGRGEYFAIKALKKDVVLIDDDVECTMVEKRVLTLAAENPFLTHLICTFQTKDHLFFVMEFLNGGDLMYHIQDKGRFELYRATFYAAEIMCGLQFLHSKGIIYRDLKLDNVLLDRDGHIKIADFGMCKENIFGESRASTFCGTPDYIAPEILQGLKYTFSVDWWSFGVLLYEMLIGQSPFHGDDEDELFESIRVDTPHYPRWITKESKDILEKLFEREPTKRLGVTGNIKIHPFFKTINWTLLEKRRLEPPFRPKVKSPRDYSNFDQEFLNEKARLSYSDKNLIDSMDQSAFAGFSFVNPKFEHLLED
Protocol: as §1, §2, §3

PKCε = target: T5, PKCε (Homo sapiens, UniProt Q02156); assay: as above; assay type: biochemical; settings: MBP substrate, 100 μM cold ATP, 30 min at 32 °C
T5 construct: made in house; host or cells: HEK-293T
T5 sequence (Q02156 1-737): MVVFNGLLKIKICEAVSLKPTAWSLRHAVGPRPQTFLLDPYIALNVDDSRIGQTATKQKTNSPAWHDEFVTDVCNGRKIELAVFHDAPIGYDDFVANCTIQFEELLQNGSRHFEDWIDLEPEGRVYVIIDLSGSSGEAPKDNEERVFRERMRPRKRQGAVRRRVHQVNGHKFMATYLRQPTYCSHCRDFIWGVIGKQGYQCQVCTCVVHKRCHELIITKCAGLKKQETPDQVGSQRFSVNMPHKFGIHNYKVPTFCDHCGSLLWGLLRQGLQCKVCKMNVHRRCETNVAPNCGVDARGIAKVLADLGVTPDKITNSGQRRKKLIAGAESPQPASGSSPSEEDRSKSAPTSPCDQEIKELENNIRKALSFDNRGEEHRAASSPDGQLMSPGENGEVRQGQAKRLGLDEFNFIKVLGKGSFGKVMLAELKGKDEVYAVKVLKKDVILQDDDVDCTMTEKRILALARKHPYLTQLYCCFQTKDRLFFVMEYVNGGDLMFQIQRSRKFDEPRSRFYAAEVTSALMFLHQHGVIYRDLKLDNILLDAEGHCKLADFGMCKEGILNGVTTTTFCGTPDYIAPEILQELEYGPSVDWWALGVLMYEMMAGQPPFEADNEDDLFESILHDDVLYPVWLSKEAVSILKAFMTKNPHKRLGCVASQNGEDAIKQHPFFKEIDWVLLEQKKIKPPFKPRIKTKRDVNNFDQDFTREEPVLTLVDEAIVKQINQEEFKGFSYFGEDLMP
Protocol: as §1, §2, §3

PKCζ = target: T6, PKCζ (Homo sapiens, UniProt Q05513); assay: as above; assay type: biochemical; settings: MBP substrate, 100 μM cold ATP, 30 min at 32 °C
T6 construct: made in house; host or cells: HEK-293T
T6 sequence (Q05513 1-592): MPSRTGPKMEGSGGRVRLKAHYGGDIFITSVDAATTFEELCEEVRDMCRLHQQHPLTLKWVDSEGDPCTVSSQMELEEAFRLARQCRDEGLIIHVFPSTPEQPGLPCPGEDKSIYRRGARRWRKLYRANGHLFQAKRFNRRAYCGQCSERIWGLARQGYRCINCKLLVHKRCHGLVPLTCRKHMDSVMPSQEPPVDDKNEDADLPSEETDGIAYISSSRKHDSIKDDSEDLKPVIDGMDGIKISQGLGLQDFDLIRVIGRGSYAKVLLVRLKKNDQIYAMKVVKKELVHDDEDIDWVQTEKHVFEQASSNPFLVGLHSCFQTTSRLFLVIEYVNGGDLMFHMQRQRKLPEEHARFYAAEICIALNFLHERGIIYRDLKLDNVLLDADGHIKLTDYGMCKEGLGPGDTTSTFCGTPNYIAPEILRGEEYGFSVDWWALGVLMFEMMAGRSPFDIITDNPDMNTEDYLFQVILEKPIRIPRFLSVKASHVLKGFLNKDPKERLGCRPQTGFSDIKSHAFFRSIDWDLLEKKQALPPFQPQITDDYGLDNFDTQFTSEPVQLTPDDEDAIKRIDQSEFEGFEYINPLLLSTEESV
Protocol: as §1, §2, §3

PKCη [2] = target: T1, PKCη; assay: as above; assay type: biochemical; settings: MBP substrate, 100 μM cold ATP, 30 min at 32 °C
Protocol: as §1, §2, §3

[3] = read-out: IC50 Values (μg/mL) (converted)

T1 sequence (P24723 whole entry): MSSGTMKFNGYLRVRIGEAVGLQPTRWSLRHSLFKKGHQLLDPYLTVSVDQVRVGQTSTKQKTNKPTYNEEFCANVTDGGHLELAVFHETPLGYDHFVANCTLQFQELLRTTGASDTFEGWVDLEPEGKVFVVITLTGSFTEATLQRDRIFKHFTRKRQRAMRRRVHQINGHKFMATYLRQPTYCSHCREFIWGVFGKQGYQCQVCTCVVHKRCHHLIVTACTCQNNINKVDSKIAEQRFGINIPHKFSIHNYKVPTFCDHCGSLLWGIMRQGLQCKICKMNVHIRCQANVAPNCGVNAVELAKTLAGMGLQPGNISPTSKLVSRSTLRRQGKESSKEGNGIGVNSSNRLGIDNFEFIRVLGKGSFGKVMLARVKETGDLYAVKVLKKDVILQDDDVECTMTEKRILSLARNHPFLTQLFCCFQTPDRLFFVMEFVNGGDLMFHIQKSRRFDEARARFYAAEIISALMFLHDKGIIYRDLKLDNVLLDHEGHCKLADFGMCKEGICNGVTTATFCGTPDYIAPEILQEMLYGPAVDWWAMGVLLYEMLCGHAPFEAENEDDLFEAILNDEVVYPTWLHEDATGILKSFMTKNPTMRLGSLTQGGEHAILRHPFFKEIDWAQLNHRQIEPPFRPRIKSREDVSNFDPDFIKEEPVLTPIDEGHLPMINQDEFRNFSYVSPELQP

SMILES	IC50 (PKCη [1]) [µM]	IC50 (PKCα; read-out: IC50 Values) [µM]	IC50 (PKCα; [3]) [µM]	IC50 (PKCγ; read-out: IC50 Values) [µM]	IC50 (PKCγ; [3]) [µM]	IC50 (PKCδ; read-out: IC50 Values) [µM]	IC50 (PKCδ; read-out: IC50 Values (μg/mL)) [µM]	IC50 (PKCε; read-out: IC50 Values) [µM]	IC50 (PKCε; [3]) [µM]	IC50 (PKCζ; read-out: IC50 Values) [µM]	IC50 (PKCζ; [3]) [µM]	IC50 (PKCη [2]; read-out: IC50 Values) [µM]	IC50 (PKCη [2]; read-out: IC50 Values (μg/mL)) [µM]
c1cc2cnccc2cn1 [2,6-Naphthyridine]	0.009												
CC1CCC(c2ccoc2)N2C1CCC1(CSC3(CCC4C(C)CCC(c5ccoc5)N4C3O)C1)C2O (stereo not shown) [DTBN, 6,6′-dihydroxythiobinupharidine]		0.174	0.175	0.168	0.169	> 19	> 19	14.2	14.2	18.6	18.6	> 19	> 19
